Values after ≈ are worked out from the molar mass of the structure shown.
Target: mushroom tyrosinase
Assay: Mushroom tyrosinase inhibition assay (whitening effect)
Assay type: biochemical
Conditions: mushroom tyrosinase 1000 units/mL, L-tyrosine, pH 6.5, 25° C. for 30 minutes, absorbance at 490 nm
Method: Then, the absorbance was recorded at 490 nm by a microplate reader to determine the amount of dopachrome generated. […] The expression of the percentage of tyrosinase activity inhibition is as follows.
Tyrosinase activity inhibitory effect (%)=(1−(A−B)/C)×100 [Equation] • A: Absorbance of sample • B: Absorbance of color control • C: Absorbance of control

SMILES: OC[C@H]1O[C@@H](Oc2ccc(O)cc2)[C@H](O)[C@@H](O)[C@@H]1O [Arbutin]
- IC50 (tyrosinase activity inhibition): 630.1 µg/mL (≈ 2310 µM)

Reference: patent US20240180793A1, “CORE STICK-TYPE OIL DISPERSION SOLID COSMETIC COMPOSITION HAVING IMPROVED SPREADABILITY” (COSMAX, INC., priority 2021, published 2024)
